Target: T1, TRF1TRFH:TIN2-FAM interaction (Homo sapiens, UniProt P54274)
T1 construct: encoding residues 47–268, UniProt identifier P54274-1; His6-MBP (TEV-cleavable) (N, cleaved yes); made in house; host or cells: E. coli BL21-CodonPlus(DE3)-RIL (TRF1TRFH); probe peptide from Pepceuticals
T1 sequence (P54274 47-268): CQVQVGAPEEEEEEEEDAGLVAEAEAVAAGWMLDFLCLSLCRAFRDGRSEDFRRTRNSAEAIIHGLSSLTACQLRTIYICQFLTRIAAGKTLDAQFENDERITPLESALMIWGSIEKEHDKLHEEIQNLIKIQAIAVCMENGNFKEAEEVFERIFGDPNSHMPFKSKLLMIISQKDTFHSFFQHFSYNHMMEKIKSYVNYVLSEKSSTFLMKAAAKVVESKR
Assay: Fluorescence polarisation (FP) competition assay, TIN2-FAM displacement
Format: binding
Details: 0.6 µM TRF1TRFH, 25 nM TIN2-FAM; mean of three independent experiments, 95% CI in parentheses
Description: To complement the biophysical R2KD assay, we developed a fluorescence polarisation (FP) competition assay based on a TIN2TBM peptide labelled with an N-terminal 5(6)-carboxyfluorescein (6-FAM) fluorophore. […] The NMR hit analogues were then titrated against constant concentrations of TRF1TRFH and TIN2-FAM (0.6 µM and 25 nM, respectively).
A TIN2TBM peptide was obtained from Pepceuticals with a 5(6)-carboxyfluorescein (FAM) fluorophore added to the N-terminus for fluorescence studies. To determine the assay window for the FP assay, the TIN2-FAM probe was prepared as a 16-µM stock in aqueous buffer and titrated from 0 to 400 nM against either a constant concentration of TRF1TRFH (0.5 µM in FP buffer) or FP buffer alone (25 mM HEPES-NaOH pH 7.5, 100 mM NaCl, 1 mM TCEP, 0.05% w/v CHAPS). Samples were prepared to a final volume of 10 µL in Packard Proxiplate 384 F plus plates; plates were incubated in darkness at room temperature for 1 h prior to measuring fluorescence intensities and calculating FP values, using a BMG Labtech PHERAstar FSX plate reader with an FP 485 520 520 optic module. A settling time of 0.3 s was used, and the number of flashes was set to 200 for FP measurements. For each plate, a target mP of 35 was set and the gain adjusted on the TIN2-FAM probe control well minus protein.
For the FP competition assay, the unlabelled compounds (from 50-mM DMSO stocks) were first dispensed in duplicate into wells of a Proxiplate 384 F Plus plate using an Echo 550 acoustic liquid handler to give a 13-point concentration range from 0.2 to 500 µM. Wells were then backfilled to 250 nL with DMSO before the addition of 5 µL of 2x TRF1TRFH (0.6 µM final concentration) and 4.75 µL 2x TIN2-FAM (25 nM final concentration). Plates were spun and sealed prior to incubation for 1 h in darkness. FP measurements were then carried out as described above.

- IC50: 67 µM
Compound: COc1cc(COc2ccc(S(=O)(=O)[O-])c3ccccc23)cc(OC)c1.[Na+] [Compound 40]

From paper PMC12635197, “Discovery of first-in-class inhibitors of the TRF1:TIN2 protein:protein interaction by fragment screening” (Scientific Reports, 2025)
